According to article PMC4129416, “YLT192, a Novel, Orally Active Bioavailable Inhibitor of VEGFR2 Signaling with Potent Antiangiogenic Activity and Antitumor Efficacy in Preclinical Models” (Scientific Reports, 2014):

Experiments:
A2058 = assay: Inhibition of tumor cell growth; type: cell-based; details: A2058, human melanoma; 48 hour treatment; means ± SD, n=3
Description: (§1) The proliferative inhibitory ability of YLT192 on tumor cells was investigated. […] Inhibition of cell proliferation is a possible approach for cancer treatment. EdU incorporation assay was performed to investigate the anti-proliferative effects of YLT192 against U251 and HCT116 cells.
(§2) treatment with YLT192. Data are means ± SD, n=3.

A875 = assay: Inhibition of tumor cell growth; type: cell-based; details: A875, human melanoma; 48 hour treatment; means ± SD, n=3
Description: as §1, §2

HCT116 cells = assay: Western blot of apoptosis-related proteins caspase 3 and Bax; type: cell-based, human; details: 48 hours
Description: Figure 4 Inhibitory effects of YLT192 on tumor cells. (A) YLT192 inhibited U251 and HCT116 cells proliferation. The EdU incorporation assay was conducted on U251 and HCT116 cells after treated with YLT192 for 24 hours. The EdU-positive (red fluorescent staining) cells and Hoechst staining (blue fluorescent staining) cells represented proliferating and total cells in the fluorescent images, respectively (100×). Quantification was shown on the right panels. (B) YLT192 induced apoptosis of HCT116 cells. HCT116 cells were treated with YLT192 or vehicle for 48 hours followed by flow cytometric analysis of annexin V-FITC and PI staining. The proportion of early apoptotic cells (annexin V positive) and late apoptotic cells (annexin V and PI positive cells) were shown. Typical apoptosis-related proteins caspase 3 and Bax were detected by western blot. Each has the expression of β-actin as internal control. The full size blots were shown in the Supplemental Figure S6 online. […] U251 and HCT116 cells were treated with YLT192 or vehicle for 48 hours and the expression of protein in different signaling pathways were detected by western blot with specific antibodies. […]
Supplementary Figure S7. […] HCT116 cells were treated with YLT192 or vehicle for 48 hours and then typical apoptosis-related proteins caspase 3 and Bax were detected by western blot. […]

HUVEC = assay: Transwell invasion assay; type: cell-based, human; details: various concentrations; 24 hours; concentration-dependent
From the text: Cell migration is essential for ECs in angiogenesis and for cancer cells in tumor growth and metastasis. […] Cell invasion is essential for EC in angiogenesis, so we performed transwell assays to evaluate the ability of HUVEC to pass through the Matrigel and membrane barriers of the transwell in the presence of various concentrations of YLT192 or vehicle.
Figure 2 Effects of YLT192 on HUVECs proliferation, migration, invasion and tube formation. […] Cells were wounded by the pipette and then treated with various concentrations of compounds for 24 hours. Migrated cells were quantified by manual counting (50×). […] The bottom chambers of the transwells were filled with 600 μL EGM2 containing various growth factors while the top chambers were seeded with 4 × 10^4 HUVECs in EBM2 and treated with different concentrations of compounds for 24 hours. Cells invaded through the membrane were stained and quantified (100×). […] HUVECs were seeded on Matrigel layer and treated with different concentrations of compounds. HUVECs tube formation was assessed 6 hours later (50×). One representative experiment of three is shown. […]
HUVECs were allowed to grow into full confluence in 24-well plates and then wounded by scratching with pipette tips and washed with PBS. […] Images were taken using a ZEISS digital microscope and invading cells were counted by manual counting. […]

## CNC(=O)c1cc(Oc2ccc(NC(=O)c3cccc(OC)c3)cc2)ccn1 [YLT192]
A2058
  IC50: 10.7 ± 1.1 µM
A875
  IC50: 14.1 ± 2.1 µM
HCT116 cells
  expression of pro-apoptotic Bax: increased
  pro-caspase-3 and its pro-apoptotic cleaved forms: a reduction of pro-caspase-3 and an increase in levels of its pro-apoptotic cleaved forms
HUVEC
  invasion of HUVECs in transwell assay: significantly inhibited
